In ChEMBL document CHEMBL1201862, “PubChem BioAssay data set” (2004):
The source made the active and inactive calls. For most assays here, no stated cut-off is given here; in the data, actives have a measured EC50 and inactives only a lower limit.

What was measured:
[1] = biological target: T1, Heat shock 70 kDa protein 1A (Homo sapiens, UniProt P0DMV8); test: Hsp70 inhibitors, biochemical, TR-FRET (AID 786)
[2] = biological target: T2, RNA-binding protein pos-1 (Caenorhabditis elegans, UniProt G5EF15); test: inhibitors of POS-1/mex-3 RNA binding, dose response, biochemical, fluorescence polarization (AID 1964);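 further: purified POS-1 fused to maltose binding protein made in E. coli; potency of compounds blocking POS-1 binding to fluorescent RNA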
T2 sequence (G5EF15 whole entry): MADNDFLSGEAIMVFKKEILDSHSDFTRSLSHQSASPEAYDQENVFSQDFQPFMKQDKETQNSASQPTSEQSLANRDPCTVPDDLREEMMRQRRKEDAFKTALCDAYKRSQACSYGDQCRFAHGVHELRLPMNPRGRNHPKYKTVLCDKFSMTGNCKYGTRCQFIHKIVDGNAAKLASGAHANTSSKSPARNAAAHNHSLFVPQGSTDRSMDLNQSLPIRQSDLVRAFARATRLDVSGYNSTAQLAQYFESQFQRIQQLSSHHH

[3] = biological target: T1, Heat shock 70 kDa protein 1A; test: Hsp70 inhibitors, probe displacement, primary screen, biochemical, fluorescence polarization (AID 583)
[4] = biological target: T3, Zinc finger protein mex-5 (Caenorhabditis elegans, UniProt Q9XUB2); test: MEX-5/TCR-2 RNA interaction inhibitors, dose response, biochemical, C. elegans, fluorescence polarization (AID 1960)
T3 sequence (Q9XUB2 whole entry): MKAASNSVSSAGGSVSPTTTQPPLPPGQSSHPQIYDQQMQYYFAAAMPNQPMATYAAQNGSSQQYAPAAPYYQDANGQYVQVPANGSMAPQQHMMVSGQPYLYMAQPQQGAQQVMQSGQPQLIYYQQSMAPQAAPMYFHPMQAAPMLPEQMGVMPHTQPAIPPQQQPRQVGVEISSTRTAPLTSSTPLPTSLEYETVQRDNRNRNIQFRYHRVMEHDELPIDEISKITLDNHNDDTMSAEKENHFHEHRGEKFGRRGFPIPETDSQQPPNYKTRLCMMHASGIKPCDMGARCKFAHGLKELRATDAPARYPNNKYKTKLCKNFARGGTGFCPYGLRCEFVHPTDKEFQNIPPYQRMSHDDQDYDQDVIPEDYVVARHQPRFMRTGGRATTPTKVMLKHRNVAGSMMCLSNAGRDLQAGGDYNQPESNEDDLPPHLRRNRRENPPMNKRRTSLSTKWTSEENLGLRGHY

[5] = biological target: T4, Endoribonuclease toxin MazF (Escherichia coli K-12, UniProt P0AE70); test: MazF toxin RNase activators, dose response, biochemical, fluorescence, single-stranded RNA substrate, uHTS hits (AID 588481); format: functional
T4 sequence (P0AE70 whole entry): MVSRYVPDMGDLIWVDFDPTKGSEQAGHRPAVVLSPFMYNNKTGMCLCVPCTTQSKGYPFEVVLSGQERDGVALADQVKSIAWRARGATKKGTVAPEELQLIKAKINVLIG

[6] = biological target: T4, Endoribonuclease toxin MazF; test: fluorescent RNA oligo signal without MazF, dose response, counter-screen for MazEF activator project, biochemical, fluorescence, single-stranded RNase substrate (AID 588502); format: functional
[7] = NIH-3T3 fibroblast cytotoxicity, dose response, cytotoxicity control, cell-based, fluorescence, Alamar Blue, secondary assay (AID 2327); format: functional;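 further: NIH-3T3 mouse fibroblasts cultured with fluconazole at 8 µg/mL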
[8] = inhibitors of firefly luciferase expression or activity, dose response, H4 neuroglioma cells, luminescence (AID 1990); format: functional, cell-based
[9] = Luminescence Cell-Based Dose Response HTS to Identify Inhibitors of 5'UTR Stem-Loop Driven Prion Protein mRNA Translation in H4 Neuroglioblastoma Cells. [Related pubchem assays: 1827 (Project Summary), 1813 (Primary HTS)]; format: functional
[10] = inhibitors of SNCA 5'UTR-driven reporter translation, confirmation, H4 neuroglioma cells, luminescence (AID 1988); format: functional, cell-based
[11] = C. albicans growth with fluconazole, confirmation, fluorescence, retest (AID 2467); format: functional, cell-based
[12] = Luminescence-based counterscreen assay for KLF5 inhibitors: dose response cell-based high throughput screening assay to identify cytotoxic compounds using the IEC-6 intestinal epithelial cell line. [Related pubchem assays: 1700 (Primary screen.), 1834 (Confirmation screen.), 1858 (Summary AID.), 1905 (Counterscreen.)]; format: functional
[13] = inhibitors of intracellular T. cruzi replication, confirmation, NIH3T3 host cells, beta-gal luminescence (AID 2044); format: functional, cell-based;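 further: intracellular parasites grown in NIH/3T3 mouse fibroblasts as host cells; luminescent beta-galactosidase reporter signal from transgenic T. cruzi replicating inside host cells; inhibitors lower the luminescence signal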
[14] = cytotoxicity toward NIH3T3 fibroblasts, dose response, counter-screen, cell-based, ATP luminescence, mouse fibroblasts (AID 2010); format: functional;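 further: cells exposed to compound for about 90 hours before reading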
Nonstructural protein 1 = Nonstructural protein 1 (Influenza A virus, UniProt Q194T2); format: functional, Influenza A virus (A/California/07/2009(H1N1))
INS1 = test: beta cell apoptosis inhibitors, cytokine rescue, dose response, luminescence, retest (AID 449756); format: functional, cell-based; settings: Rattus norvegicus;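 further: cell death triggered by IL-1 beta plus TNF-alpha plus IFN-gamma mixture; protective hits raise ATP signal compared with cytokine alone wells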
Caspase-6 = biological target: T5, Caspase-6 (Homo sapiens, UniProt P55212); test: human caspase-6 inhibitors, dose response, biochemical, VEID-R110 fluorescence, cherry-pick (AID 720632)
T5 sequence (P55212 whole entry): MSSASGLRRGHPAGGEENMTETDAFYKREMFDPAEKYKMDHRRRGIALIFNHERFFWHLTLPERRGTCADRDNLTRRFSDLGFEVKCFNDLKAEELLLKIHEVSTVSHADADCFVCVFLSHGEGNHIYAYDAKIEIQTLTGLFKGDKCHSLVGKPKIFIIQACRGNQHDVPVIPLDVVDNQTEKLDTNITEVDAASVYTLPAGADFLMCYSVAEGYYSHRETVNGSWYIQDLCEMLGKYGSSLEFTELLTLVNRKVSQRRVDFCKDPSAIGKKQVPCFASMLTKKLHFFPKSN

T1 sequence (P0DMV8 whole entry, the tested form may be a part): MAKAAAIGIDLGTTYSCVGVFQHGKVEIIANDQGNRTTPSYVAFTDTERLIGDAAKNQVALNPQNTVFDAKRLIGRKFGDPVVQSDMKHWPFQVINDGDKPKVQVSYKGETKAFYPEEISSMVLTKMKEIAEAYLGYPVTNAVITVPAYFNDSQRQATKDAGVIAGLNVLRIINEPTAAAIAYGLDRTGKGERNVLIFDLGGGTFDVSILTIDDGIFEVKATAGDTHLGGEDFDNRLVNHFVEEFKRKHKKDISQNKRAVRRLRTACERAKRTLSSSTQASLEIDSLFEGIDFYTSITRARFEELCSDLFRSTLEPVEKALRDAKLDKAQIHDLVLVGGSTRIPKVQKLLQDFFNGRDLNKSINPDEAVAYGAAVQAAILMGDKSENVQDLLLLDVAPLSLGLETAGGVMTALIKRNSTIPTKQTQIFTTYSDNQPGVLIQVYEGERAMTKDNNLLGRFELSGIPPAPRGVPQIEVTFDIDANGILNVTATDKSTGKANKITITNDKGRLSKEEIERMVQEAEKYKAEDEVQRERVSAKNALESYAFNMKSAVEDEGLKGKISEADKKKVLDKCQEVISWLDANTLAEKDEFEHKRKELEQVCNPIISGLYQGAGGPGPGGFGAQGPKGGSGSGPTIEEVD
Nonstructural protein 1, sequence (Q194T2 whole entry): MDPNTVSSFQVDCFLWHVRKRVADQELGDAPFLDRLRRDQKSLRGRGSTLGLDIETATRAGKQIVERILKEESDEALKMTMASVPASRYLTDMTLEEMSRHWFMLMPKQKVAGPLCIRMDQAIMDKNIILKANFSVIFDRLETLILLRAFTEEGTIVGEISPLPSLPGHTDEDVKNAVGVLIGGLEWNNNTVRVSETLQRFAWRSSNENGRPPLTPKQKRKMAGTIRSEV

CCOn1c(=O)c(-c2cc3ccccc3o2)[n+]([O-])c2ccccc21
IC50 [1]: > 100 µM (not active) | EC50 [2]: 13.4 µM (inconclusive) | IC50 [3]: > 100 µM (not active) | EC50 [4]: 180 µM (inconclusive) | EC50 [5]: > 99 µM (inactive) | EC50 [6]: 30.9 µM (inactive)

NS(=O)(=O)c1ccc(N=Nc2ccc(O)c3ncccc23)cc1
EC50 [7]: 32.2 µM (active) | EC50 [8]: 9.04 µM (active) | EC50 [9]: 8.29 µM (active) | EC50 [10]: 5.67 µM (active) | EC50 [11]: 1.95 µM (active) | IC50 [12]: 10.7 µM (not active) | EC50 [13]: 4.07 µM (active) | EC50 [14]: 10.4 µM (active) | IC50 (Nonstructural protein 1): 7.62 µM (active) | AC50 (INS1): 3.45 µM (active) | AC50 (Caspase-6): 1.58 µM (active)
